According to US8680275B2, “Fused heterocyclic compounds as orexin receptor modulators” (Janssen Pharmaceutica NV, priority 2009, dated 2014):
Read-outs that look alike come from different tables or passages of the source.

Legend:
human orexin 1 receptor = human orexin 1 receptor (Homo sapiens (Human), UniProt O43613); assay: Human orexin 1 receptor radioligand binding ([3H]-SB674042 competition); details: read-out: OR-1 Ki
Outline: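 CHO cells stably expressing human OX1R incubated 60 min at room temperature with [3H]-SB674042 and compounds (7 concentrations, 0.1 nM–10 μM; DMSO ≤0.1%) in PBS. Nonspecific binding defined with 10 μM of a reference urea antagonist; bound radioactivity measured by filtration and scintillation counting.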

human orexin-2 receptor = human orexin-2 receptor (Homo sapiens (Human), UniProt O43614); assay: Human orexin 2 receptor radioligand binding ([3H]-EMPA competition); details: HEK293 cells stably expressing human orexin-2 receptor; [3H]-EMPA 5 nM final; read-out: OR-2 Ki
Outline: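 Competition binding on HEK293 cells stably expressing human orexin-2 receptor, using 5 nM final [3H]-EMPA in PBS, compounds 0.1 nM to 10 μM (DMSO ≤0.1%). 60 min at room temperature, then filtration and scintillation counting; nonspecific binding defined with 10 μM of a reference antagonist.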

[1] = CHO cells stably expressing human orexin 1 receptor, [3H]-SB674042 4 nM final

human orexin-2 receptor, sequence (O43614 whole entry): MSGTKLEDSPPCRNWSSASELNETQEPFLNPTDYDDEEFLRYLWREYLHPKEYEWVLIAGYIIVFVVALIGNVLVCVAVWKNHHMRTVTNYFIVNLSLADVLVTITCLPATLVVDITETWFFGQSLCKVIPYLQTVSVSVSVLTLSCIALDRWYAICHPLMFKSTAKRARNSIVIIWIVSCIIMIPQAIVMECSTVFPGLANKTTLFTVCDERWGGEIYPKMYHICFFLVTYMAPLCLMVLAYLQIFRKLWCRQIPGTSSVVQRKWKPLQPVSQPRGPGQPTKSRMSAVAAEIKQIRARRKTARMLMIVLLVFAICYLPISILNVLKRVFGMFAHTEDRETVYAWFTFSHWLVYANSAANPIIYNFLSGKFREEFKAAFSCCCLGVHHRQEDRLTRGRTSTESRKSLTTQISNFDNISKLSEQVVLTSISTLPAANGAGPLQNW
human orexin 1 receptor, sequence (O43613 whole entry): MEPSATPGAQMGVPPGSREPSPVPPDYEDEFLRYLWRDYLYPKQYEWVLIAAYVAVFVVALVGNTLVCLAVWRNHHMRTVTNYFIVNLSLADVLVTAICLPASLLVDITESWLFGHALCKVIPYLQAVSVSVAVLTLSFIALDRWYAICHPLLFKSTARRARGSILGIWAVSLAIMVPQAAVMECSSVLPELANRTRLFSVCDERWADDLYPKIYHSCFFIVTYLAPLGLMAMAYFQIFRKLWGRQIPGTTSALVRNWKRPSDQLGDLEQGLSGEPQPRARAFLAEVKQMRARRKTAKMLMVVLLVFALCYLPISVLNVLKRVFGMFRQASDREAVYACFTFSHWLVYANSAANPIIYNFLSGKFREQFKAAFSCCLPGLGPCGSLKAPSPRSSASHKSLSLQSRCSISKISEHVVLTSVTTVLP

Compound | Ki (human orexin 1 receptor; [1]) | Ki (human orexin-2 receptor) | Ki (human orexin 1 receptor)
O=C(c1c(F)cccc1-n1nccn1)N1CC[C@H]2CN(c3nc4cc(Cl)ccc4o3)[C@H]2C1 [Example 120, 5-Chloro-2-[(1R,6S)-3-{[2-fluoro-6-(2H-1,2,3-triazol-2-yl)phenyl]carbonyl}-3,8-diazabicyclo[4.2.0]oct-8-yl]-1,3-benzoxazole] | 43 nM | 26 nM | –
Cc1cccc(N2C[C@@H]3CCN(C(=O)c4c(F)cccc4-n4nccn4)C[C@@H]32)n1 [Example 124, (1R,6S)-3-{[2-Fluoro-6-(2H-1,2,3-triazol-2-yl)phenyl]carbonyl}-8-(6-methylpyridin-2-yl)-3,8-diazabicyclo[4.2.0]octane] | 4150 nM | 92 nM | –
Cc1ccc(S(=O)(=O)N2CC[C@H]3CN(c4cnc5ccccc5n4)[C@H]3C2)c(C)c1 [Example 20, (1R,6S)2-[3-(2,4-Dimethyl-benzenesulfonyl)-3,8-diaza-bicyclo[4.2.0]oct-8-yl]-quinoxaline] | 379 nM | 2110 nM | –
Cc1cnc(C)c(N2C[C@@H]3CCN(C(=O)c4ccc(F)cc4-n4nccn4)C[C@@H]32)n1 [Example 31, (1R,6S)-[8-(3,6-Dimethyl-pyrazin-2-yl)-3,8-diaza-bicyclo[4.2.0]oct-3-yl]-(4-fluoro-2-[1,2,3]triazol-2-yl-phenyl)-methanone] | ≥ 10000 nM | 81 nM | –
Cc1cc(N2C[C@@H]3CCN(C(=O)c4c(F)cccc4-n4nccn4)C[C@@H]32)nc(C(F)(F)F)n1 [Example 32, (1R,6S)-(2-Fluoro-6-[1,2,3]triazol-2-yl-phenyl)-[8-(6-methyl-2-trifluoromethyl-pyrimidin-4-yl)-3,8-diaza-bicyclo[4.2.0]oct-3-yl]-methanone] | 134 nM | 13 nM | –
COc1ccnc(N2CC3CN(C(=O)c4ccccc4-c4ccccc4)CC32)n1 (centres unmarked) [Example 63, 3-(Biphenyl-2-ylcarbonyl)-6-(4-methoxypyrimidin-2-yl)-3,6-diazabicyclo[3.2.0]heptane] | 10000 nM | 392 nM | –
Cc1cc(C)nc(N2C[C@@H]3CCN(C(=O)c4cccc(F)c4-n4nccn4)C[C@@H]32)c1 [Example 148, (1R,6S)-8-(4,6-Dimethylpyridin-2-yl)-3-{[3-fluoro-2-(2H-1,2,3-triazol-2-yl)phenyl]carbonyl}-3,8-diazabicyclo[4.2.0]octane] | 845 nM | 36 nM | –
Cc1cncc(N2C[C@@H]3CCN(C(=O)c4ccc(F)cc4-n4nccn4)C[C@@H]32)n1 [Example 114, (1R,6S)-3-{[4-Fluoro-2-(2H-1,2,3-triazol-2-yl)phenyl]carbonyl}-8-(6-methylpyrazin-2-yl)-3,8-diazabicyclo[4.2.0]octane] | – | 494 nM | 10000 nM
Cc1ccnc(N2CC3CN(C(=O)c4ccccc4-c4cccs4)CC32)n1 (centres unmarked) [Example 60, 6-(4-Methylpyrimidin-2-yl)-3-[(2-thiophen-2-ylphenyl)carbonyl]-3,6-diazabicyclo[3.2.0]heptane] | 10000 nM | 188 nM | –
Cc1nccnc1N1C[C@@H]2CCN(C(=O)c3ccc(F)cc3-n3nccn3)C[C@@H]21 [Example 108, (1R,6S)-3-{[4-Fluoro-2-(2H-1,2,3-triazol-2-yl)phenyl]carbonyl}-8-(3-methylpyrazin-2-yl)-3,8-diazabicyclo[4.2.0]octane] | 10000 nM | 10000 nM | –
O=C(c1ccc(F)cc1-n1nccn1)N1CC[C@H]2CN(c3nc4cc(Cl)ccc4o3)[C@H]2C1 [Example 122, 5-Chloro-2-[(1R,6S)-3-{[4-fluoro-2-(2H-1,2,3-triazol-2-yl)phenyl]carbonyl}-3,8-diazabicyclo[4.2.0]oct-8-yl]-1,3-benzoxazole] | 128 nM | 59 nM | –
Cc1cc(N2C[C@@H]3CCN(C(=O)c4cc(F)ccc4-n4nccn4)C[C@@H]32)nc(N(C)C)n1 [Example 40, (1R,6S)-[8-(2-Dimethylamino-6-methyl-pyrimidin-4-yl)-3,8-diaza-bicyclo[4.2.0]oct-3-yl]-(5-fluoro-2-[1,2,3]triazol-2-yl-phenyl)-methanone] | 1210 nM | 91 nM | –
Cc1cc(N2C[C@@H]3CCN(C(=O)c4c(F)cccc4-n4nccn4)C[C@@H]32)nc(N(C)C)n1 [Example 44, (1R,6S)-[8-(2-Dimethylamino-6-methyl-pyrimidin-4-yl)-3,8-diaza-bicyclo[4.2.0]oct-3-yl]-(2-fluoro-6-[1,2,3]triazol-2-yl-phenyl)-methanone] | 480 nM | 73 nM | –
COc1ccc(C(=O)N2CC[C@H]3CN(c4cc(N(C)C)ccn4)[C@H]3C2)c(-n2nccn2)c1 [Example 142, 2-[(1R,6S)-3-{[4-Methoxy-2-(2H-1,2,3-triazol-2-yl)phenyl]carbonyl}-3,8-diazabicyclo[4.2.0]oct-8-yl]-N,N-dimethylpyridin-4-amine] | 10000 nM | 9000 nM | –
Cc1ccnc(N2CC3CN(C(=O)c4ccccc4-c4ccccc4)CC32)n1 (centres unmarked) [Example 61, 3-(Biphenyl-2-ylcarbonyl)-6-(4-methylpyrimidin-2-yl)-3,6-diazabicyclo[3.2.0]heptane] | 10000 nM | 980 nM | –
O=C(c1cccc(F)c1-n1nccn1)N1CC[C@H]2CN(c3cc(C(F)(F)F)ccn3)[C@H]2C1 [Example 145, (1R,6S)-3-{[3-Fluoro-2-(2H-1,2,3-triazol-2-yl)phenyl]carbonyl}-8-[4-(trifluoromethyl)pyridin-2-yl]-3,8-diazabicyclo[4.2.0]octane] | 3300 nM | 110 nM | –
Cc1ccc(-n2nccn2)c(C(=O)N2CC3CN(c4nc(C)cc(C)n4)C3C2)c1 (centres unmarked) [Example 68, 6-(4,6-Dimethylpyrimidin-2-yl)-3-{[5-methyl-2-(2H-1,2,3-triazol-2-yl)phenyl]carbonyl}-3,6-diazabicyclo[3.2.0]heptane] | 5000 nM | 192 nM | –
O=C(c1cc(F)ccc1-n1nccn1)N1CC[C@H]2CN(c3cnc4ccccc4n3)[C@H]2C1 [Example 118, 2-[(1R,6S)-3-{[5-Fluoro-2-(2H-1,2,3-triazol-2-yl)phenyl]carbonyl}-3,8-diazabicyclo[4.2.0]oct-8-yl]quinoxaline] | 33 nM | 40 nM | –
COc1ccnc(N2CC3CN(C(=O)c4ccccc4-c4cccs4)CC32)n1 (centres unmarked) [Example 62, 6-(4-Methoxypyrimidin-2-yl)-3-[(2-thiophen-2-ylphenyl)carbonyl]-3,6-diazabicyclo[3.2.0]heptane] | 5000 nM | 123 nM | –

Now from value to compound, other results behind:

Ki (human orexin 1 receptor; [1]) | Ki (human orexin-2 receptor) | Compound | Ki (human orexin 1 receptor)
219 nM | 55 nM | Cc1cc(C)nc(N2C[C@@H]3CCN(C(=O)c4cccc5c4-c4ccccc4C5)C[C@@H]32)n1 [Example 167, (1R,6S)-8-(4,6-Dimethylpyrimidin-2-yl)-3-(9H-fluoren-4-ylcarbonyl)-3,8-diazabicyclo[4.2.0]octane] | –
10000 nM | 1300 nM | Cc1cc(C)nc(N2C[C@@H]3CCN(C(=O)c4ncccc4Br)C[C@@H]32)n1 [Example 181, (1R,6S)-3-[(3-Bromopyridin-2-yl)carbonyl]-8-(4,6-dimethylpyrimidin-2-yl)-3,8-diazabicyclo[4.2.0]octane] | –
6000 nM | 370 nM | Cc1cnc(-n2nccn2)c(C(=O)N2CC[C@H]3CN(c4nc(C)cc(C)n4)[C@H]3C2)c1 [Example 160, (1R,6S)-8-(4,6-Dimethylpyrimidin-2-yl)-3-{[5-methyl-2-(2H-1,2,3-triazol-2-yl)pyridin-3-yl]carbonyl}-3,8-diazabicyclo[4.2.0]octane] | –
600 nM | 56 nM | Cc1cc(C)nc(N2C[C@@H]3CCN(C(=O)c4cccc(F)c4-c4ncccn4)C[C@@H]32)n1 [Example 185, (1R,6S)-8-(4,6-Dimethylpyrimidin-2-yl)-3-[(3-fluoro-2-pyrimidin-2-ylphenyl)carbonyl]-3,8-diazabicyclo[4.2.0]octane] | –
10000 nM | 1100 nM | Cc1cc(C)nc(N2C[C@@H]3CCN(C(=O)c4c(C)noc4-c4cc(C)on4)C[C@@H]32)n1 [Example 179, 4′-{[(1R,6S)-8-(4,6-Dimethylpyrimidin-2-yl)-3,8-diazabicyclo[4.2.0]oct-3-yl]carbonyl}-3′,5-dimethyl-3,5′-biisoxazole] | –
1300 nM | 35 nM | Cc1cc(C)nc(N2C[C@@H]3CCN(C(=O)c4cc(F)ccc4-c4ccn(C)n4)C[C@@H]32)n1 [Example 188, (1R,6S)-8-(4,6-Dimethylpyrimidin-2-yl)-3-{[5-fluoro-2-(1-methyl-1H-pyrazol-3-yl)phenyl]carbonyl}-3,8-diazabicyclo[4.2.0]octane] | –
7000 nM | 126 nM | Cc1cc(C)nc(N2C[C@@H]3CCN(C(=O)c4ncoc4-c4cccc(Cl)c4)C[C@@H]32)n1 [Example 178, (1R,6S)-3-{[5-(3-Chlorophenyl)-1,3-oxazol-4-yl]carbonyl}-8-(4,6-dimethylpyrimidin-2-yl)-3,8-diazabicyclo[4.2.0]octane] | –
4500 nM | 280 nM | Cc1cnc(-n2ccnn2)c(C(=O)N2CC[C@H]3CN(c4nc(C)cc(C)n4)[C@H]3C2)c1 [Example 161, (1R,6S)-8-(4,6-Dimethylpyrimidin-2-yl)-3-{[5-methyl-2-(1H-1,2,3-triazol-1-yl)pyridin-3-yl]carbonyl}-3,8-diazabicyclo[4.2.0]octane] | –
1850 nM | 223 nM | O=C(c1cccc(F)c1-c1ncccn1)N1CC[C@H]2CN(c3cc(C(F)(F)F)ccn3)[C@H]2C1 [Example 152, (1R,6S)-3-[(3-Fluoro-2-pyrimidin-2-ylphenyl)carbonyl]-8-[4-(trifluoromethyl)pyridin-2-yl]-3,8-diazabicyclo[4.2.0]octane] | –
